Assay results taken from PubChem BioAssay AID1963971 (Molecular Pharmacology Branch, DTP, NCI, 2024).

Test system: 953936-095-R-J2-PDC spheroids with HUVEC/MSC, viability
Test: Anticancer human tumor 953936-095-R-J2-PDC patient-derived cervical squamous cell carcinoma cell line growth inhibition [PI3K]
Settings: for IC50: curve of first compound; for viability, T/C: stronger effect = lower value
Method in brief: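 Stroma-containing spheroids: tumor line, pooled-donor HUVEC, hMSC. Treatments: targeted agents with PI3K inhibitors. Dosing: clinically relevant, half-log spacing, 10 microM ceiling without known Cmax. Read-out: cell viability.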

[1] = second compound 0.0316 µM, first compound 0.000316 µM
[2] = second compound 0.0316 µM, first compound 0.001 µM
[3] = second compound 0.0316 µM, first compound 0.00316 µM
[4] = second compound 0.0316 µM, first compound 0.01 µM
[5] = second compound 0.0316 µM, first compound 0.0316 µM
[6] = second compound 0.0316 µM, first compound 0.1 µM
[7] = second compound 0.1 µM, first compound 0.000316 µM
[8] = second compound 0.1 µM, first compound 0.001 µM
[9] = second compound 0.1 µM, first compound 0.00316 µM
[10] = second compound 0.1 µM, first compound 0.01 µM
[11] = second compound 0.1 µM, first compound 0.0316 µM
[12] = second compound 0.1 µM, first compound 0.1 µM
[13] = second compound 0.316 µM, first compound 0.000316 µM
[14] = second compound 0.316 µM, first compound 0.001 µM
[15] = second compound 0.316 µM, first compound 0.00316 µM
[16] = second compound 0.316 µM, first compound 0.01 µM
[17] = second compound 0.316 µM, first compound 0.0316 µM
[18] = second compound 0.316 µM, first compound 0.1 µM
[19] = second compound 1 µM, first compound 0.000316 µM
[20] = second compound 1 µM, first compound 0.001 µM
[21] = second compound 1 µM, first compound 0.00316 µM
[22] = second compound 1 µM, first compound 0.01 µM
[23] = second compound 1 µM, first compound 0.0316 µM
[24] = second compound 1 µM, first compound 0.1 µM
[25] = second compound 3.16 µM, first compound 0.000316 µM
[26] = second compound 3.16 µM, first compound 0.001 µM
[27] = second compound 3.16 µM, first compound 0.00316 µM
[28] = second compound 3.16 µM, first compound 0.01 µM
[29] = second compound 3.16 µM, first compound 0.0316 µM
[30] = second compound 3.16 µM, first compound 0.1 µM
[31] = second compound 10 µM, first compound 0.000316 µM
[32] = second compound 10 µM, first compound 0.001 µM
[33] = second compound 10 µM, first compound 0.00316 µM
[34] = second compound 10 µM, first compound 0.01 µM
[35] = second compound 10 µM, first compound 0.0316 µM
[36] = second compound 10 µM, first compound 0.1 µM
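Also: spheroids exposed to compounds for seven days before read-out.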

In the case of `CC(=O)c1c(C)c2cnc(Nc3ccc(N4CCNCC4)cn3)nc2n(C2CCCC2)c1=O` + Cc1nc(NC(=O)N2CCCC2C(N)=O)sc1-c1ccnc(C(C)(C)C(F)(F)F)c1, the IC50 (second compound 0.0316 µM) is reported as > 100 nM, the IC50 (second compound 0.1 µM) is reported as > 100 nM and the IC50 (second compound 0.316 µM) is reported as > 100 nM. The IC50 (second compound 1 µM) was < 0.316 nM, the IC50 (second compound 3.16 µM) was < 0.316 nM and the IC50 (second compound 10 µM) was < 0.316 nM. For the same compound, the viability, T/C [1] was 88.8%, the viability, T/C [2] was 92.6% and the viability, T/C [3] was 88.5%. It also gave a viability, T/C [4] of 91%, a viability, T/C [5] of 103% and a viability, T/C [6] of 89.5%. The viability, T/C [7] was 75.6%, the viability, T/C [8] was 82.3% and the viability, T/C [9] was 85.6%. It also gave a viability, T/C [10] of 74.1%, a viability, T/C [11] of 88% and a viability, T/C [12] of 75.9%. The viability, T/C [13] was 57.8%, the viability, T/C [14] was 69.5% and the viability, T/C [15] was 61%. It also gave a viability, T/C [16] of 60.7%, a viability, T/C [17] of 70.2% and a viability, T/C [18] of 59.3%. For the same compound, the viability, T/C [19] was 46.1%, the viability, T/C [20] was 46.3% and the viability, T/C [21] was 44.4%. For the same compound, the viability, T/C [22] was 44.1%, the viability, T/C [23] was 45.3% and the viability, T/C [24] was 43.5%. The viability, T/C [25] was 25.4%, the viability, T/C [26] was 25.3% and the viability, T/C [27] was 27.3%. The viability, T/C [28] was 24.9%, the viability, T/C [29] was 28.3% and the viability, T/C [30] was 24.7%. For the same compound, the viability, T/C [31] was 11.3%, the viability, T/C [32] was 10.9% and the viability, T/C [33] was 10.2%. The viability, T/C [34] was 10.2%, the viability, T/C [35] was 11.4% and the viability, T/C [36] was 11.7%.

In the case of `CC(C)n1nc(-c2ccc3oc(N)nc3c2)c2c(N)ncnc21` + Cc1nc(NC(=O)N2CCCC2C(N)=O)sc1-c1ccnc(C(C)(C)C(F)(F)F)c1, the IC50 (second compound 0.0316 µM) is reported as 24.3 nM, the IC50 (second compound 0.1 µM) is reported as 18.7 nM and the IC50 (second compound 0.316 µM) is reported as 7.32 nM. For the same compound, the IC50 (second compound 1 µM) was < 0.316 nM, the IC50 (second compound 3.16 µM) was < 0.316 nM and the IC50 (second compound 10 µM) was < 0.316 nM. For the same compound, the viability, T/C [1] was 83%, the viability, T/C [2] was 86.6% and the viability, T/C [3] was 78.5%. The viability, T/C [4] was 68.2%, the viability, T/C [5] was 44.8% and the viability, T/C [6] was 16.1%. It also gave a viability, T/C [7] of 78.4%, a viability, T/C [8] of 74.6% and a viability, T/C [9] of 69.2%. The viability, T/C [10] was 64.1%, the viability, T/C [11] was 39.2% and the viability, T/C [12] was 15.2%. For the same compound, the viability, T/C [13] was 66%, the viability, T/C [14] was 60.7% and the viability, T/C [15] was 56.8%. The viability, T/C [16] was 48.7%, the viability, T/C [17] was 30.8% and the viability, T/C [18] was 11.8%. The viability, T/C [19] was 45.9%, the viability, T/C [20] was 42.9% and the viability, T/C [21] was 38.4%. The viability, T/C [22] was 33.9%, the viability, T/C [23] was 19.7% and the viability, T/C [24] was 8.92%. The viability, T/C [25] was 26%, the viability, T/C [26] was 24.1% and the viability, T/C [27] was 21.5%. It also gave a viability, T/C [28] of 18.3%, a viability, T/C [29] of 10.8% and a viability, T/C [30] of 5.88%. The viability, T/C [31] was 11.7%, the viability, T/C [32] was 10.8% and the viability, T/C [33] was 10.2%. For the same compound, the viability, T/C [34] was 9.27%, the viability, T/C [35] was 6.73% and the viability, T/C [36] was 3.32%.

Work on `CCCS(=O)(=O)Nc1ccc(F)c(C(=O)c2c[nH]c3ncc(-c4ccc(Cl)cc4)cc23)c1F` + Cc1nc(NC(=O)N2CCCC2C(N)=O)sc1-c1ccnc(C(C)(C)C(F)(F)F)c1 yielded an IC50 (second compound 0.0316 µM) of 5030 nM, an IC50 (second compound 0.1 µM) of 4880 nM and an IC50 (second compound 0.316 µM) of 4280 nM. For the same compound, the IC50 (second compound 1 µM) was < 31.6 nM, the IC50 (second compound 3.16 µM) was < 31.6 nM and the IC50 (second compound 10 µM) was < 31.6 nM. For the same compound, the viability, T/C [5] was 90.7%, the viability, T/C [6] was 95.1% and the viability, T/C (second compound 0.0316 µM, first compound 0.316 µM) was 95.8%. It also gave a viability, T/C (second compound 0.0316 µM, first compound 1 µM) of 99.2%, a viability, T/C (second compound 0.0316 µM, first compound 3.16 µM) of 83.2% and a viability, T/C (second compound 0.0316 µM, first compound 10 µM) of 0.75%. The viability, T/C [11] was 82.6%, the viability, T/C [12] was 88.3% and the viability, T/C (second compound 0.1 µM, first compound 0.316 µM) was 86.1%. For the same compound, the viability, T/C (second compound 0.1 µM, first compound 1 µM) was 92.9%, the viability, T/C (second compound 0.1 µM, first compound 3.16 µM) was 80% and the viability, T/C (second compound 0.1 µM, first compound 10 µM) was 0.68%. It also gave a viability, T/C [17] of 64.6%, a viability, T/C [18] of 65.1% and a viability, T/C (second compound 0.316 µM, first compound 0.316 µM) of 66.9%. The viability, T/C (second compound 0.316 µM, first compound 1 µM) was 73.8%, the viability, T/C (second compound 0.316 µM, first compound 3.16 µM) was 68.2% and the viability, T/C (second compound 0.316 µM, first compound 10 µM) was 0.57%. For the same compound, the viability, T/C [23] was 46.6%, the viability, T/C [24] was 45.9% and the viability, T/C (second compound 1 µM, first compound 0.316 µM) was 47%. It also gave a viability, T/C (second compound 1 µM, first compound 1 µM) of 50.2%, a viability, T/C (second compound 1 µM, first compound 3.16 µM) of 37.3% and a viability, T/C (second compound 1 µM, first compound 10 µM) of 0.59%. For the same compound, the viability, T/C [29] was 26.6%, the viability, T/C [30] was 26.2% and the viability, T/C (second compound 3.16 µM, first compound 0.316 µM) was 27.5%. It also gave a viability, T/C (second compound 3.16 µM, first compound 1 µM) of 25.5%, a viability, T/C (second compound 3.16 µM, first compound 3.16 µM) of 20.2% and a viability, T/C (second compound 3.16 µM, first compound 10 µM) of 1.4%. For the same compound, the viability, T/C [35] was 11.7%, the viability, T/C [36] was 12.8% and the viability, T/C (second compound 10 µM, first compound 0.316 µM) was 13.7%. It also gave a viability, T/C (second compound 10 µM, first compound 1 µM) of 14.2%, a viability, T/C (second compound 10 µM, first compound 3.16 µM) of 9.62% and a viability, T/C (second compound 10 µM, first compound 10 µM) of 0.42%.
